# Article PMC4293281 (Bioorganic & medicinal chemistry, 2014)
# Assays:
# [1] = target: SV40 T Ag (Simian virus 40, UniProt P03070); test: steady state ATPase assay with SV40 T Ag; type: biochemical; conditions: for inhibition of SV40 T Ag ATPase activity at 100 μM: final concentration 100 μM, percent activity relative to T Ag without inhibitor
# [2] = system: SV40; test: SV40 viral DNA replication assay in CV1 cells; type: cell-based, Simian Virus 40 in CV1 monkey kidney cells; conditions: monkey kidney cells, range of concentrations
# [3] = aqueous solubility by LC-HRMS; type: physicochemical; conditions: distilled water, 30 °C, thermodynamic from solid
# [4] = target: human Hsp70 (Homo sapiens, UniProt P0DMV8); test: steady state ATPase assay with human Hsp70; type: biochemical
# human Hsp70, sequence (P0DMV8 whole entry): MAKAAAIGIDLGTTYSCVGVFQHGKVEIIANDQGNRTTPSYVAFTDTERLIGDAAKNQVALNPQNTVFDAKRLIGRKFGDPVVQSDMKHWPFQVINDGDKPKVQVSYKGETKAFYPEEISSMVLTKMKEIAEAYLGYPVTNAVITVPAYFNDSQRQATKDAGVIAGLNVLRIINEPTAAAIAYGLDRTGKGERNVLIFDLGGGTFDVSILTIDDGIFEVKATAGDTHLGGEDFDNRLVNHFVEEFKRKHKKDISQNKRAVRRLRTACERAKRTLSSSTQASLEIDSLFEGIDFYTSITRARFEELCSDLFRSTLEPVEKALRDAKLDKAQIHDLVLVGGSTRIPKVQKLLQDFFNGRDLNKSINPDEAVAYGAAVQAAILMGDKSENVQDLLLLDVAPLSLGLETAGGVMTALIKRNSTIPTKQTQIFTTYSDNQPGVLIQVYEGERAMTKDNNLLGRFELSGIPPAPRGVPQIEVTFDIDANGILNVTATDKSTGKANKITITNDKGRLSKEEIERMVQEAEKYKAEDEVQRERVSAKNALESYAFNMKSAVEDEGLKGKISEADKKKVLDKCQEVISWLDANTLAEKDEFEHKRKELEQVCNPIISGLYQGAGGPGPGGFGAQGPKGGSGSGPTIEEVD
# [5] = target: human Hsp70 in the presence of a J domain containing yeast protein (Hlj1) (Homo sapiens, UniProt P0DMV8); test: steady state ATPase assay, Hsp70 stimulated by J domain protein Hlj1; type: biochemical
# human Hsp70 in the presence of a J domain containing yeast protein (Hlj1), sequence (P0DMV8 whole entry): as above
# [6] = target: human Hsp70 in the presence of a human J domain-containing protein (Hdj2) (Homo sapiens, UniProt P0DMV8); test: steady state ATPase assay, Hsp70 stimulated by J domain protein Hdj2; type: biochemical; conditions: 100 μM versus DMSO control, 60-min time course
# human Hsp70 in the presence of a human J domain-containing protein (Hdj2), sequence (P0DMV8 whole entry): as above
# [7] = compound stability in male mouse liver microsomes; type: in vitro ADME
# [8] = system: HEK293 cells; test: HEK293 cell viability; type: cell-based, human; conditions: 20 h incubation, Cell Titer-Glo
# SV40 T Ag, sequence (P03070 whole entry): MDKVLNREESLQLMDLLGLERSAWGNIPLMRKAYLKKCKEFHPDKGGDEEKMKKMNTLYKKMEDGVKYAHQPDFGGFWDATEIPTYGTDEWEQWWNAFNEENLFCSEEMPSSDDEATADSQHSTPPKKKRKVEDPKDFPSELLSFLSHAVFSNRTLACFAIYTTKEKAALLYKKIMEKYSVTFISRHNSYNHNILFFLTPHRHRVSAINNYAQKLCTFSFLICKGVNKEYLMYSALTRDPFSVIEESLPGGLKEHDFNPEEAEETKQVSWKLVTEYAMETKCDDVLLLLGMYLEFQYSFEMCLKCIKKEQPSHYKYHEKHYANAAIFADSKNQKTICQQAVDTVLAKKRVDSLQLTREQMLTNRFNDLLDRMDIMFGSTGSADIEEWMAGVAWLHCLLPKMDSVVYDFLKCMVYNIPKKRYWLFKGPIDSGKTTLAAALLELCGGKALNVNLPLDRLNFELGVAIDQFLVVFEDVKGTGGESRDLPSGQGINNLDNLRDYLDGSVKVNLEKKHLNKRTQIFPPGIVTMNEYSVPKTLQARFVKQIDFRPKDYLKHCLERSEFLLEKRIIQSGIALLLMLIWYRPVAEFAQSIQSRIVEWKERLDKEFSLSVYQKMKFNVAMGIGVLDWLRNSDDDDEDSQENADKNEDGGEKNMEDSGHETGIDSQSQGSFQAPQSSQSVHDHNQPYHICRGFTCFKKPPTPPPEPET
SMILES,IC50 [1] [µM],inhibition of SV40 T Ag ATPase activity at 100 μM [1],inhibition of SV40 replication (viral DNA by qPCR) [2],solubility at 24 h [3] [µg/mL],further results
"CC1=C(C(=O)OCc2ccccc2)C(c2ccc(-c3ccccc3C)cc2)NC(=O)N1CCCCCc1nnn[nH]1 (stereo not drawn) [LR340-006, Benzyl 1-(5-(1H-tetrazol-5-yl)pentyl)-6-methyl-4-(2′-methyl-[1,1′-biphenyl]-4-yl)-2-oxo-1,2,3,4-tetrahydropyrimidine-5-carboxylate]",~50,,,,"inhibition of SV40 T Ag ATPase activity, titration ([1]; titration at 10, 30 and 100 μM): most potent"
"CC1=C(C(=O)OCc2ccccc2)C(c2ccc(-c3ccccc3)cc2)NC(=O)N1Cc1ccc(-c2nnn[nH]2)cc1 (stereo not drawn) [ML282-56, Benzyl 1-(4-(1H-tetrazol-5-yl)benzyl)-4-([1,1′-biphenyl]-4-yl)-6-methyl-2-oxo-1,2,3,4-tetrahydropyrimidine-5-carboxylate]",~50,inhibited T Ag ATPase activity,inhibited viral replication,14.4 ± 0.5,
"CC1=C(C(=O)OCc2ccccc2)C(c2ccc(-c3ccccc3)cc2)NC(=O)N1CCCCCC(=O)NS(C)(=O)=O (stereo not drawn) [ML282-66, Benzyl 4-([1,1′-biphenyl]-4-yl)-6-methyl-1-(6-(methylsulfonamido)-6-oxohexyl)-2-oxo-1,2,3,4-tetrahydropyrimidine-5-carboxylate]",,inhibited T Ag ATPase activity,,,"inhibition of SV40 T Ag ATPase activity at 30 μM ([1]; titration, 30 μM): reduced compared to ML282-56"
"CC1=C(C(=O)OCc2ccccc2)C(c2ccc(-c3ccccc3C)cc2)NC(=O)N1Cc1ccc(-c2nnn[nH]2)cc1 (stereo not drawn) [SMAL, Benzyl 1-(4-(1H-tetrazol-5-yl)benzyl)-6-methyl-4-(2′-methyl-[1,1′-biphenyl]-4-yl)-2-oxo-1,2,3,4-tetrahydropyrimidine-5-carboxylate]",~5,,inhibited viral replication,62.4 ± 3.1,"IC50 [4]: ~24 µM; inhibition of endogenous Hsp70 ATPase activity at 30 μM ([4]; final concentration 30 μM versus DMSO control): inhibited the endogenous activity of Hsp70; IC50 [5]: > 30 µM; inhibition of Hdj2 activation of Hsp70 ATPase [6]: stronger than MAL2-11B tetrazole; compound remaining after 60 min incubation ([7]; male mouse liver microsomes, NADPH, 1 h): ~ 68%; stability in liver microsomes ([7]; murine liver microsomes): quite stable"
CN[C@@H]1C[C@H]2O[C@@](C)([C@@H]1OC)n1c3ccccc3c3c4c(c5c6ccccc6n2c5c31)C(=O)NC4 [Staurosporine],,,,,LD50 [8]: < 3 µM
